Source: patent US7166570B2, “Medical implants and fibrosis-inducing agents” (Angiotech International AG, priority 2003, dated 2007)

Assays:
Test in all cases: MIC determination by microtitre broth dilution
Format in all cases: cell-based
E. coli UB1005 C498 wt = settings: Gram−, Mueller Hinton broth, 37° C., 24 h, aerobic, N = No activity
Procedure: (§1) MIC assays were conducted essentially as described by Amsterdam, D. 1996, “Susceptibility testing of antimicrobials in liquid media,” p. 52–111. In Loman, V., ed. Antibiotics in laboratory medicine, 4th ed. Williams and Wilkins, Baltimore, Md.

[1] = system: K. pneumoniae ATCC13883 C238 wt; settings: Gram−, Mueller Hinton broth, 37° C., 24 h, aerobic, N = No activity
Procedure: as §1

[2] = system: P. aeruginosa PAE/K799 H187 Wt; settings: Gram−, Mueller Hinton broth, 37° C., 24 h, aerobic, N = No activity
Procedure: as §1

[3] = system: S. aureus ATCC25923 C622 wt; settings: Gram+, Mueller Hinton broth, 37° C., 24 h, aerobic, N = No activity
Procedure: as §1

S. epidermidis C621 wt = settings: Gram+, Mueller Hinton broth, 37° C., 24 h, aerobic, N = No activity
Procedure: as §1

S. pyogenes C721 wt = settings: Gram+, Todd Hewitt broth, 37° C., 24 h, aerobic, N = No activity
Procedure: as §1

Compound | Minimum inhibitory concentration (MIC) (E. coli UB1005 C498 wt) | Minimum inhibitory concentration (MIC) [1] | Minimum inhibitory concentration (MIC) [2] | Minimum inhibitory concentration (MIC) [3] | Minimum inhibitory concentration (MIC) (S. epidermidis C621 wt) | Minimum inhibitory concentration (MIC) (S. pyogenes C721 wt)
Sc1ncnc2nc[nH]c12 [6-mercaptopurine] | N | N | N | N | N | N
Nc1ccn([C@@H]2O[C@H](CO)[C@@H](O)[C@@H]2O)c(=O)n1 [Cytarabine] | N | N | N | N | N | N
O=c1[nH]cc(F)c(=O)[nH]1 [5-Fluorouracil] | 10^−6 Molar | 10^−6 Molar | 10^−5 Molar | 10^−7 Molar | 10^−7 Molar | 10^−4 Molar
COc1cccc2c1C(=O)c1c(O)c3c(c(O)c1C2=O)C[C@@](O)(C(=O)CO)C[C@@H]3O[C@H]1C[C@H](N)[C@H](O)[C@H](C)O1 [Doxorubicin] | 10^−4 Molar | 10^−6 Molar | 10^−5 Molar | 10^−5 Molar | 10^−6 Molar | 10^−7 Molar
Nc1ncnc2c1ccn2[C@@H]1O[C@H](CO)[C@@H](O)[C@H]1O [tubercidin] | N | N | N | N | N | N
CN(Cc1cnc2nc(N)nc(N)c2n1)c1ccc(C(=O)N[C@@H](CCC(=O)O)C(=O)O)cc1 [Methotrexate] | N | 10^−6 Molar | N | 10^−5 Molar | N | 10^−6 Molar
NC(=O)NO [hydroxyurea] | N | N | 10^−4 Molar | N | N | 10^−4 Molar
Sc1ncc2[nH]cnc2n1 [2-mercaptopurine] | N | N | N | N | N | N
COc1cc([C@@H]2c3cc4c(cc3[C@@H](O[C@@H]3O[C@@H]5CO[C@@H](C)O[C@H]5[C@H](O)[C@H]3O)[C@H]3COC(=O)[C@H]23)OCO4)cc(OC)c1O [etoposide] | N | 10^−5 Molar | N | 10^−5 Molar | 10^−6 Molar | 10^−5 Molar
CC[C@@]1(O)C(=O)OCc2c1cc1n(c2=O)Cc2cc3ccccc3nc2-1 [Camptothecin] | N | N | N | N | 10^−4 Molar | N
O=C1c2c(O)ccc(O)c2C(=O)c2c(NCCNCCO)ccc(NCCNCCO)c21 [mitoxantrone] | 10^−5 Molar | 10^−6 Molar | 10^−5 Molar | 10^−5 Molar | 10^−5 Molar | 10^−6 Molar
